# Measured values from patent US8524978B2, “Composition for production of plant body having improved sugar content, and use thereof” (Japan Science and Technology Agency, priority 2007, dated 2013).
# Key:
# Prunus avium (Napoleon) = assay: Sugar content determination of Prunus avium fruit with refractometer (Example 8); type: in vivo; conditions: leaf surface coated with 0.5 mM 4 and 3 weeks before harvest; vs no GSSG; ANOVA 5%
# Description: In the present example, Prunus avium was cultivated. Specifically, 4 weeks and 3 weeks before an expected date of harvesting Prunus avium (Napoleon) fruit, a surface of a leaf on a branch having the fruit to be harvested was coated with 0.5 mM GSSG. The fruit was harvested on the expected date.
# Next, the fruit harvested was subjected to a sensory test of sugar content. As a result, it was determined that the fruit applied with GSSG increased in sugar content and decreased in acidity. Further, it was determined that the fruit applied with GSSG increased in weight. Furthermore, the fruit obtained was subjected to sugar content determination using “Pocket” Refractometer APAL-1 (ATAGO CO., LTD.). For comparison, fruit applied with no GSSG was also subjected to the sugar content determination. […] In FIG. 5, the vertical scale indicates sugar content (Brix, unit: %).
# Citrus unshiu = Citrus unshiu leaf coating with GSSG, sensory test of fruit (Example 9); type: in vivo; conditions: leaf surface coated with 0.5 mM one week before harvest
# Description: In the present example, Citrus unshiu was cultivated. Specifically, one week before an expected date of harvesting Citrus unshiu fruit, a surface of a leaf on a branch having the fruit to be harvested was coated with 0.5 mM GSSG. The fruit was harvested on the expected date.
# Next, the fruit harvested was subjected to a sensory test of sugar content. As a result, it was determined that the fruit applied with GSSG increased in sugar content and decreased in acidity. Further, it was determined that the fruit applied with GSSG increased in weight. Furthermore, the fruit obtained was subjected to sugar content determination using “Pocket” Refractometer APAL-1 (ATAGO CO., LTD.). For comparison, fruit applied with no GSSG was also subjected to the sugar content determination. […] In FIG. 6, the vertical scale indicates sugar content (Brix, unit: %).
substance,measurement,setting,value
oxidized glutathione [GSSG],sugar content of fruit (Brix),Prunus avium (Napoleon),significantly improved
same,acidity of fruit (sensory test),Citrus unshiu,decreased
same,sugar content of fruit (sensory test),Citrus unshiu,increased
same,weight of fruit,Citrus unshiu,increased
